Data reported in patent US20190315711A1 (eXIthera Pharmaceuticals, Inc., priority 2016, published 2019).
Values after ≈ are worked out from the molar mass of the structure shown.

Assays:
[1] = Caco-2 cell permeability assay (A-B and B-A); format: in vitro ADME; conditions: human; for Papp A→B at 60 min, 10 μM: A-B direction; for Papp B→A at 40 min, 10 μM: B-A direction
Method: The following procedure was used to determine the ability of a test compound to cross Caco-2 cells (human intestinal epithelial cells derived from a colorectal adenocarcinoma). The cells were seeded at 1×10^5 cells/cm^2 in 96-well Multiscreen™ plates (Millipore). Permeability assays were performed with the cells at days 21-25 post-seeding. Cells are typically used for 15 consecutive passages in culture.
This assay can be performed in either the apical to basolateral (A−B) or basolateral to apical (B−A) direction. The test compound was prepared at 10 μM in HBSS-MES (pH 6.5) or HBSS-HEPES (pH 7.4) with a final DMSO concentration of 1%. The working solution was then centrifuged and the supernatant added to the donor side. The assay plate was incubated at 37° C. with gentle shaking for 60 min or 40 min for the A−B or B−A assay, respectively. Samples were aliquoted from the donor side at time zero and the end point, and from the receiver side at the end point.
Reference compounds, propranolol (highly permeable), labetalol (moderately permeable), ranitidine (poorly permeable), and colchicine (P-glycoprotein substrate) were included in each assay.
Samples are analyzed by HPLC-MS/MS using selected reaction monitoring. The HPLC system consists of a binary LC pump with autosampler, a C-18 column, and a gradient.
The apparent permeability coefficient (Papp) of the test compound (Equation 2) and its recovery (Equation 3) are calculated as follows: […]
wherein A is the surface area of the cell monolayer (0.11 cm^2), C is concentration of the test compound expressed as peak area, D denotes donor, and R is receiver. “0”, “mid,” and “end” denote time at zero, mid-point, and end of the incubation, respectively. At is the incubation time. V is the volume of the donor or receiver.
This is most likely due to non-specific binding or degradation.

[2] = Plasma protein binding by equilibrium dialysis; format: in vitro ADME; conditions: both sexes, pooled plasma, pH 7.4, human plasma protein binding, read-out: PPB
Method: The following procedure was used to determine the plasma protein binding of a test compound in pooled plasma from human (mixed gender) via equilibrium dialysis in a 96-well plate format. The dialysate compartment was loaded with phosphate-buffered saline (pH 7.4) and the sample side was loaded with plasma spiked with the test compound at a concentration of 10 μM. After loading, samples were covered and incubated for 4 hours at 37° C. After incubation, each compartment was sampled, diluted with acetonitrile/buffer and centrifuged. The supernatants were analyzed by HPLC-MS/MS. The analyte peak areas obtained from HPLC-MS/MS analysis of each sample were used to calculate protein binding according to the following equation (Equation 4):
where: AREAp=Peak area of analyte in protein matrix; AREAb=Peak area of analyte in buffer. The amount measured in the plasma compartment included both free and bound drug, while that on the buffer side represented free drug only; the differences were used to calculate the percentage plasma protein bound. Three reference compounds were tested in each assay: acebutolol, quinidine and warfarin.

[3] = Aqueous solubility in PBS pH 7.4; format: physicochemical; conditions: phosphate buffered saline, aqueous buffer, kinetic from dmso stock, PBS pH 7.4, room temperature
Method: The following procedure was used to determine the aqueous solubility of a test compound in phosphate buffered saline (PBS—NaCl 137 mM, KCl 2.7 mM, Na2HPO4 8.1 mM, KH2PO4 1.5 mM, pH 7.4) in 96-well plate format by HPLC-UV/VIS analysis. The test compound was prepared at 200 μM in PBS from a 10 mM DMSO stock solution. The final DMSO concentration was 2%. The PBS buffer samples were mixed thoroughly followed by incubation at room temperature for 24 h. At the end of the incubation, the PBS buffer samples were centrifuged and supernatants analyzed by HPLC. The aqueous solubility (μM) of the test compound in PBS was determined by comparing the peak area of the principal peak in the calibration standard (200 μM) with the peak area of the corresponding peak in each of the PBS samples. The range of the assay was approximately 0.5 μM to 200 μM. The reference compounds used in each assay were metoprolol, rifampicin, ketoconazole, phenytoin, haloperidol, simvastatin, diethylstilbestrol, and tamoxifen ranking from fully soluble (200 μM) to poorly soluble (<1 μM).

[4] = Determination of bioavailability in a dog; format: in vivo; conditions: plasma, male beagle dogs, IV 1 mg/kg vs oral gavage 5 mg/kg
Method: The following protocol was used to estimate the bioavailability of test compounds in a dog. Test compounds were formulated in vehicles compatible with intravenous and oral dosing. Test compounds were administered to male beagle dogs via an intravenous bolus at 1 mg/kg (1 mg/mL at a dose volume of 1 mL/kg) or via oral gavage at 5 mg/kg (1 mg/mL at a dose volume of 5 mL/kg). Blood samples were collected via the contralateral (to intravenous bolus) jugular vein or via other accessible vein, at various timepoints following administration out to 24 hours post dose. Plasma samples (EDTA) were obtained by centrifugation (2200×g for 10 minutes at 5° C.) and stored frozen ([…]) until analyzed for parent compound via LC/MS/MS. Pharmacokinetic parameters were estimated from the plasma concentration time data by standard non-compartmental methods utilizing standard analysis software. By comparing the area under the curve (AUC) for IV and PO administration estimates of oral bioavailability were determined.

Papp A→B at 60 min, 10 μM [1] [×10⁻⁶ cm/s]	Papp B→A at 40 min, 10 μM [1] [×10⁻⁶ cm/s]	fraction unbound at 4 h, 10 μM [2]	solubility at 24 h [3] [µM]	bioavailability [4] [%]	Compound
11 to 30	≤ 10	< 0.05	10 to 100 (≈ 5.32 to 53.2 µg/mL)		Cc1ccccc1N(C)C(=O)[C@@H]1[C@@H](Cc2ccnc(N)c2)C(=O)N1C(=O)N[C@@H](C1CCCCC1)C(F)(F)F [Compound 15]
11 to 30	11 to 30	0.1 to 0.5	> 100		CN(C(=O)[C@@H]1[C@@H](Cc2ccnc(N)c2)C(=O)N1C(=O)N[C@@H](C1CCCCC1)C(F)(F)F)c1cccnc1 [Compound 17]
11 to 30	11 to 30	0.1 to 0.5	> 100		CN(C(=O)[C@@H]1[C@@H](Cc2ccnc(N)c2)C(=O)N1C(=O)N[C@@H](C1CCCCC1)C(F)(F)F)c1ccncc1 [Compound 18]
11 to 30	31 to 50	0.05 to 0.09	> 100		CN(C(=O)[C@@H]1[C@@H](Cc2ccnc(N)c2)C(=O)N1C(=O)N[C@@H](C1CCCCC1)C(F)(F)F)c1cncnc1 [Compound 19]
11 to 30	≤ 10	< 0.05	10 to 100 (≈ 5.36 to 53.6 µg/mL)		CN(C(=O)[C@@H]1[C@@H](Cc2ccnc(N)c2)C(=O)N1C(=O)N[C@@H](C1CCCCC1)C(F)(F)F)c1cccc(F)c1 [Compound 22]
11 to 30	≤ 10	< 0.05	10 to 100 (≈ 5.32 to 53.2 µg/mL)		CCN(C(=O)[C@@H]1[C@@H](Cc2ccnc(N)c2)C(=O)N1C(=O)N[C@@H](C1CCCCC1)C(F)(F)F)c1ccccc1 [Compound 24]
11 to 30	11 to 30			≤ 10	CC[C@@H](NC(=O)N1C(=O)[C@H](Cc2ccnc(N)c2)[C@H]1C(=O)N(CC)c1ncccn1)C1CCCCC1 [Compound 39]
≤ 10	31 to 50	0.1 to 0.5	> 100		CC[C@@H](NC(=O)N1C(=O)[C@H](Cc2ccnc(N)c2)[C@H]1C(=O)N(C)c1ccccc1)c1cccnc1 [Compound 44]
11 to 30	> 50	0.1 to 0.5	> 100		CC[C@@H](NC(=O)N1C(=O)[C@H](Cc2ccnc(N)c2)[C@H]1C(=O)N(C)c1ccccc1)C1CC1 [Compound 46]
> 50	11 to 30	0.05 to 0.09	> 100		C[C@@H](NC(=O)N1C(=O)[C@H](Cc2ccnc(N)c2)[C@H]1C(=O)N(C)c1ccccc1)C1CCCCC1 [Compound 49]
31 to 50	≤ 10	< 0.05	> 100		CCC[C@@H](NC(=O)N1C(=O)[C@H](Cc2ccnc(N)c2)[C@H]1C(=O)N(C)c1ccccc1)C1CCCCC1 [Compound 50]
≤ 10	31 to 50	< 0.5	> 100		CN(C(=O)[C@@H]1[C@@H](Cc2ccnc(N)c2)C(=O)N1C(=O)N[C@@H](C1CC1)C(F)(F)F)c1ccncc1 [Compound 77]
11 to 30	> 50	0.1 to 0.5	> 100		CN(C(=O)[C@@H]1[C@@H](Cc2ccnc(N)c2)C(=O)N1C(=O)N[C@@H](C1CC1)C(F)(F)F)c1ncccn1 [Compound 78]
11 to 30	11 to 30	< 0.05	> 100		CC[C@@H](NC(=O)N1C(=O)[C@H](Cc2ccnc(N)c2)[C@H]1C(=O)N(C)c1ncncn1)C1CCCCC1 [Compound 81]
≤ 10	31 to 50	0.05 to 0.09	> 100		CN(C(=O)[C@@H]1[C@@H](Cc2ccnc(N)c2)C(=O)N1C(=O)NC(c1ccccc1)c1ccccc1)c1ccncc1 [Compound 82]
≤ 10	> 50	0.1 to 0.5	> 100		CC[C@@H](NC(=O)N1C(=O)[C@H](Cc2ccnc(N)c2)[C@H]1C(=O)N(C)c1ncncn1)c1ccccc1 [Compound 83]
≤ 10	31 to 50	< 0.05	> 100		CCC[C@@H](NC(=O)N1C(=O)[C@H](Cc2ccnc(N)c2)[C@H]1C(=O)N(C)c1ccncc1)c1ccccc1 [Compound 86]
≤ 10	31 to 50	0.05 to 0.09	> 100		CC[C@@H](NC(=O)N1C(=O)[C@H](Cc2ccnc(N)c2)[C@H]1C(=O)N(C)c1ccncc1)c1ccc(Cl)cc1 [Compound 89]
≤ 10	31 to 50	0.05 to 0.09	> 100		CC[C@@H](NC(=O)N1C(=O)[C@H](Cc2ccnc(N)c2)[C@H]1C(=O)N(C)c1ccncc1)c1ccccc1Cl [Compound 95]
≤ 10	31 to 50	0.1 to 0.5	> 100		CC[C@H](NC(=O)N1C(=O)[C@H](Cc2ccnc(N)c2)[C@H]1C(=O)N(C)c1ccncc1)c1ccccc1C [Compound 97]
≤ 10	11 to 30	0.1 to 0.5	> 100		CC[C@@H](NC(=O)N1C(=O)[C@H](Cc2ccnc(N)c2)[C@H]1C(=O)N(C)c1ccncc1)c1cccc(C#N)c1 [Compound 99]
≤ 10	31 to 50	0.1 to 0.5	> 100		CC[C@@H](NC(=O)N1C(=O)[C@H](Cc2ccnc(N)c2)[C@H]1C(=O)N(C)c1ccncc1)c1cccc(OC)c1 [Compound 100]
11 to 30	≤ 10	< 0.05	10 to 100 (≈ 5.2 to 52 µg/mL)		CC[C@@H](NC(=O)N1C(=O)[C@H](Cc2cc(C)nc(N)c2)[C@H]1C(=O)N(C)c1ccccc1)c1cccc(Cl)c1 [Compound 120]
11 to 30	11 to 30	0.05 to 0.09	> 100		CC[C@@H](NC(=O)N1C(=O)[C@H](Cc2ccnc(N)c2)[C@H]1C(=O)N(C)c1ncccn1)c1cccc(Cl)c1 [Compound 121]
11 to 30	≤ 10	< 0.05	10 to 100 (≈ 6.07 to 60.7 µg/mL)		CC[C@@H](NC(=O)N1C(=O)[C@H](Cc2ccnc(NC(=O)OC(C)(C)C)c2)[C@H]1C(=O)N(C)c1ccncc1)c1cccc(Cl)c1 [Compound 127]
